Reference: patent publication US20210002282A1 (DR. REDDY'S LABORATORIES LIMITED, priority 2018, published 2021)
Where two headings read alike, the source gives them in different places.

What was measured:
[1] = Hygroscopicity of solid forms (statement only); type: physicochemical
[2] = 25° C. ± 2° C. 60% RH ± 5RH, 1 Month
[3] = 25° C. ± 2° C. 60% RH ± 5RH, 3 Months
[4] = 25° C. ± 2° C. 60% RH ± 5RH, Initial
[5] = 40° C. ± 2° C. 75% RH ± 5RH, 1 Month
[6] = 40° C. ± 2° C. 75% RH ± 5RH, 3 Months
[7] = 40° C. ± 2° C. 75% RH ± 5RH, Initial

Row | Compound | % Total Impurities [2] [%] | % Water content [2] [%] | Description [2] | % Total Impurities [3] [%] | % Water content [3] [%] | Description [3] | % Total Impurities [4] [%] | % Water content [4] [%] | Description [4] | PXRD [4] | % Total Impurities [5] [%] | % Water content [5] [%] | Description [5] | % Total Impurities [6] [%] | % Water content [6] [%] | Description [6] | % Total Impurities [7] [%] | % Water content [7] [%] | Description [7] | PXRD [7] | other results
1 | C=CC(=O)N1CCC[C@@H](n2nc(-c3ccc(Oc4ccccc4)cc3)c3c(N)ncnc32)C1 [Form D18, Ibrutinib] | 0.46 | 0.10 | White | 0.39 | 0.19 | White | 0.38 | 0.13 | White | Crystalline | 0.45 | 0.16 | White | 0.45 | 0.29 | White | 0.38 | 0.13 | White | Crystalline | Octanoic acid content (%) [2]: 24.70%; Octanoic acid content (%) [3]: 25.57%; Octanoic acid content (%) [4]: 25.24%; Octanoic acid content (%) [5]: 24.70%; Octanoic acid content (%) [6]: 24.99%; Octanoic acid content (%) [7]: 25.24%; hygroscopicity [1]: non-hygroscopic
2 | C=CC(=O)N1CCC[C@@H](n2nc(-c3ccc(Oc4ccccc4)cc3)c3c(N)ncnc32)C1 [Form D19, Ibrutinib] | 0.42 | 0.20 | Off-White | 0.42 | 0.09 | Off-White | 0.41 | 0.19 | Off-White | Crystalline | 0.49 | 0.13 | Off-White | 0.50 | 0.11 | Off-White | 0.41 | 0.19 | Off-White | Crystalline | Hexanoic acid content (%) [2]: 21.73%; Hexanoic acid content (%) [3]: 21.24%; Hexanoic acid content (%) [4]: 23.13%; Hexanoic acid content (%) [5]: 21.48%; Hexanoic acid content (%) [6]: 20.79%; Hexanoic acid content (%) [7]: 23.13%; hygroscopicity [1]: non-hygroscopic
